{"source": "patent US20250120975A1", "about": "“INTEGRIN INHIBITORS FOR TREATMENT OF PRIMARY SCLEROSING CHOLANGITIS” (Pliant Therapeutics, Inc., priority 2023, published 2025)", "format_in_all_cases": "in vivo, human", "key": {"[1]": {"system": "subjects with PSC and suspected liver fibrosis", "experiment": "Phase 2a INTEGRIS-PSC: Enhanced Liver Fibrosis (ELF) score and components", "experimental": "The Enhanced Liver Fibrosis (ELF) score is a set of markers for extracellular matrix (ECM) activity. Three serum markers are measured, tissue inhibitor of metalloproteinases 1 (TIMP-1), amino-terminal propeptide of type III procollagen (PIIINP) and hyaluronic acid (HA). The measurements are combined in an algorithm to provide a score that correlates well with the degree of liver fibrosis (Sharma, C. et al., Journal of Gastroenterology and Hepatology, 36:1788-1802(2021), incorporated by reference herein in its entirety). A change in ELF score greater than or equal to 0.19 is indicative of clinical progression within two years (Muir A. J. et al., Hepatology, 2019 February; 69 (2): 684-698, incorporated by reference herein in its entirety). An ELF greater than or equal to 7.7 is considered moderate to severe fibrosis (Vesterhus M. et al., Hepatology, 2015 July; 62(1):188-97; incorporated by reference herein in its entirety).\n(§1) In Parts 1 and 2, plasma, serum, and urine biomarker samples were obtained at predetermined times as indicated in the Schedule of Events (see Table B-4). In Part 3, plasma and serum biomarker samples were obtained at predetermined times as indicated in the Schedule of Events (see Table B-5 and Table B-6). These samples were used to measure specific proteins, nucleotides and/or metabolites that were elevated in subjects with fibrosis, and/or pharmacodynamic markers that could change with inhibition of integrins αVβ6 and αVβ1. The samples were also used to perform exploratory investigations using metabolomic or proteomic methods for use in future studies in subjects with fibrotic diseases.\n(§2) Absolute and relative changes from Baseline in liver fibrosis biomarkers (including PRO-C3 and ELF) and in ALP are presented in numerical and graphical forms by treatment and dose utilizing data from the timepoints specified in the Schedule of Events. Changes from Baseline to Week 12(Parts 1 and 2) and Week 24 (Part 3) in magnetic resonance (MR)-based liver imaging are also evaluated, as well as changes in PROs."}, "[2]": {"system": "subjects with PSC and suspected liver fibrosis", "experiment": "Phase 2a INTEGRIS-PSC: liver biochemistry (ALP, ALT, AST, bilirubin)", "experimental": "Fasting blood and urine specimens for safety laboratory assessments were or will be obtained at the time points specified in the Schedule of Events (see Table B-4, Table B-5, and Table B-6). Specimens are obtained after at least an 8-hour fast. Subjects are in a seated or supine position during blood collection. Creatinine clearance is calculated using the Cockcroft-Gault equation.\nas §2"}, "[3]": {"system": "subjects with PSC and suspected liver fibrosis", "experiment": "Phase 2a INTEGRIS-PSC: PRO-C3 (collagen synthesis)", "text": "as §1, §2"}, "[4]": {"system": "subjects with PSC and suspected liver fibrosis", "experiment": "Phase 2a INTEGRIS-PSC: transient elastography (FibroScan) liver stiffness", "details": "320 mg, Week 24, compared to an increase on placebo, Example B-5", "text": "Transient elastography (TE) utilizes an ultrasound shear wave to assess the elasticity of the liver, that is, how “stiff” the liver tissue is. Fibrosis causes stiffening or hardening of tissue, and TE can be used to diagnose fibrosis and determine the degree of fibrosis. The FibroScan® device (FibroScan® is a registered trademark of ECHOSENS, Paris, France, for medical equipment and software) can be used for TE. (Kemp W, Roberts S., Aust Fam Physician. 2013 July; 42(7):468-71; and Ozturk A. et al., Abdom Radiol (NY), 2022 September; 47 (9): 3037-3050; each of which are hereby incorporated by reference in their entireties).\nEach subject underwent an ultrasound-based transient elastography (FibroScan®) assessment at the screening and Week 12 study visits (Parts 1 and 2) and will undergo an ultrasound-based transient elastography (FibroScan®) assessment at the screening, at Week 12 study visits, and at Week 24 (Part 3 only). FibroScan® is a noninvasive technique that uses ultrasound-based transient elastography (TE) to assess liver stiffness measurement (LSM) and determine likelihood of clinically meaningful liver fibrosis.\nThe LSM, as assessed by TE, is expressed in kilopascals (kPa). Larger values (normal range approximately between 2 and 7 kPa) indicate a greater likelihood of clinically meaningful liver fibrosis. See H. Ehlken, et al. (2016) PloS ONE 11 (10): e0164224 and C. […]"}, "[5]": {"details": "all doses (40, 80, 160 mg), Week 12, Example B-3"}}, "note": "“Also recorded” adds a separate entry of the source."}
{"smiles": "COCCN(CCCCc1ccc2c(n1)NCCC2)CC[C@H](Nc1ncnc2ccccc12)C(=O)O", "note": "[Bexotegrast, (S)-4-((2-methoxyethyl)(4-(5,6,7,8-tetrahydro-1,8-naphthyridin-2-yl)butyl)amino)-2-(quinazolin-4-ylamino)butanoic acid]", "values": [{"measurement": "ELF score components TIMP-1, HA, PIIINP vs placebo", "setting": "[1]; 160 mg, Week 12, Example B-3", "value": "achieved statistical significance"}, {"measurement": "ELF score, difference to placebo", "setting": "[1]; 160 mg, Week 12, Example B-3", "value": "statistically significant difference"}, {"measurement": "reduction of the mean change in ELF score relative to placebo", "setting": "[1]; 160 mg, Week 12, Example B-3", "value": 84, "unit": "%"}, {"measurement": "ELF score relative to placebo", "setting": "[1]; 320 mg, Week 12, Example B-4", "value": "reduction"}, {"measurement": "ELF score, overall population", "setting": "[1]; 320 mg, Week 12 to Week 24, Example B-5", "value": "no increase; also recorded: stable ELF score"}, {"measurement": "ELF score, patients at high risk (baseline ELF >9.8)", "setting": "[1]; 320 mg, Week 24, compared to an increase in the placebo group, Example B-5", "value": "reduction in ELF score"}, {"measurement": "ELF score components (TIMP-1, PIIINP, HA) compared to placebo", "setting": "[1]; 40, 80, 160, 320 mg, Week 12, Example B-4", "value": "generally reduced"}, {"measurement": "ELF score relative to placebo", "setting": "[1]; [5]", "value": "reduced"}, {"measurement": "ELF scores relative to placebo", "setting": "[1]; all doses (40, 80, 160, 320 mg), Week 12, Example B-4", "value": "reduced"}, {"measurement": "ALP, all participants", "setting": "[2]; 320 mg, over 24 weeks, compared to increased levels on placebo, Example B-5", "value": "statistically significant reduction"}, {"measurement": "ALP, patients with elevated baseline ALP values", "setting": "[2]; 320 mg, over 24 weeks, Example B-5", "value": "greater reductions"}, {"measurement": "ALP relative to placebo", "setting": "[2]; 40, 80, 160 mg, Week 12, Example B-3", "value": "dose-dependent trend for reduction in ALP"}, {"measurement": "liver chemistry levels (ALT, AST, total and direct bilirubin)", "setting": "[2]; all doses versus increases in placebo, Week 12, Example B-3", "value": "stabilization of liver chemistry levels"}, {"measurement": "ALP relative to the placebo", "setting": "[2]; subgroup with elevated ALP (>ULN) at Baseline, Week 12, Example B-4", "value": "stabilized"}, {"measurement": "PRO-C3, difference to placebo", "setting": "[3]; 40 mg (p<0.01) and 160 mg (p<0.05), Week 12, Example B-3", "value": "statistically significant differences from placebo"}, {"measurement": "PRO-C3 levels relative to placebo", "setting": "[3]; 320 mg, Week 12, Example B-4", "value": "reduction"}, {"measurement": "collagen synthesis (PRO-C3) relative to placebo", "setting": "[3]; [5]", "value": "reduced"}, {"measurement": "PRO-C3 relative to the placebo", "setting": "[3]; all doses, statistical significance at Week 12 for 40 mg, 160 mg and pooled groups, Example B-4", "value": "reduced"}, {"measurement": "median liver stiffness by transient elastography (TE)", "setting": "[4]", "value": "numerical reduction"}, {"measurement": "median liver stiffness by transient elastography (TE)", "setting": "[4]; listed as bexotegrast", "value": "decrease"}]}
